Assay results taken from publication PMC6155239, “Targeting PFKFB3 radiosensitizes cancer cells and suppresses homologous recombination” (Nature Communications, 2018).

Legend:
[1] = tested on: U2OS cells; test: Intracellular dNTP measurement (HIV-1 RT-based); type: cell-based; conditions: 4 h and 24 h, relative to DMSO
Method: HIV-1 RT-based dNTP assay[55] was used to quantify dNTP levels in U2OS cells upon indicated treatment and time points. Briefly, cells were trypsinized and counted before dNTPs extraction by 60% methanol solution, the dried dNTP samples were resuspended with water, and then RT-based primer extension reaction was performed to determine the amounts of dNTPs. Obtained dNTP amounts were normalized to 1 × 10^6 cells, and dNTP levels were related to control treatment with DMSO.

[2] = molecular target: PFKFB3 (Homo sapiens, UniProt Q16875); test: Isothermal titration calorimetry; type: binding; conditions: 25 °C
Sequence of PFKFB3 (Q16875 whole entry): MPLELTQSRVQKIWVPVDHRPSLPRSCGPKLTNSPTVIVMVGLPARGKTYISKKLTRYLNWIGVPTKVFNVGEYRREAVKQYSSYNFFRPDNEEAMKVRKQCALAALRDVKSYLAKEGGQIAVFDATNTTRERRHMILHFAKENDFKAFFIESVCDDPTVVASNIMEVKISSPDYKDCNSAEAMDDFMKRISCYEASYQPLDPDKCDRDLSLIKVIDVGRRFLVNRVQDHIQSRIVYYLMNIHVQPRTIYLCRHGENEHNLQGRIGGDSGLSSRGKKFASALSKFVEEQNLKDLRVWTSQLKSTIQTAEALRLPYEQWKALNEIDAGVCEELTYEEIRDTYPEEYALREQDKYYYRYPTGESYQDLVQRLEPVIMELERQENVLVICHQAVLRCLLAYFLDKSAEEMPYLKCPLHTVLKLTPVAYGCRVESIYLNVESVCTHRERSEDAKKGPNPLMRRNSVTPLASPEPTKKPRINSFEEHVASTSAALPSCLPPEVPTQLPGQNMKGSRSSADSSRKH
Method: ITC was performed for the titration of 200 μM KAN0438241 into 20 μM PFKFB3 protein. Raw ITC data was recorded for 12 × 3 μl injections (preceded by 0.4 μl injection). Data was collected with PEAQ-ITC system (MicroCal™, Malvern Instruments) at 25 °C, 10 μcal/s Reference Power, High Feedback, and 750 rpm stirring rate. A constant value of the heat of dilution was fitted along with the binding parameters. Data analysis performed with dedicated PEAQ-ITC analysis software (MicroCal, Malvern Instruments).

[3] = molecular target: T1, ACVR1B (Homo sapiens, UniProt P36896); test: KINOMEscan; type: binding; conditions: 2000 nM; read-out: Percent Control
T1 construct: purchased DiscoverX (Eurofins) KINOMEscan / scanEDGE, inferred from the naming style
T1 sequence (P36896 24-505): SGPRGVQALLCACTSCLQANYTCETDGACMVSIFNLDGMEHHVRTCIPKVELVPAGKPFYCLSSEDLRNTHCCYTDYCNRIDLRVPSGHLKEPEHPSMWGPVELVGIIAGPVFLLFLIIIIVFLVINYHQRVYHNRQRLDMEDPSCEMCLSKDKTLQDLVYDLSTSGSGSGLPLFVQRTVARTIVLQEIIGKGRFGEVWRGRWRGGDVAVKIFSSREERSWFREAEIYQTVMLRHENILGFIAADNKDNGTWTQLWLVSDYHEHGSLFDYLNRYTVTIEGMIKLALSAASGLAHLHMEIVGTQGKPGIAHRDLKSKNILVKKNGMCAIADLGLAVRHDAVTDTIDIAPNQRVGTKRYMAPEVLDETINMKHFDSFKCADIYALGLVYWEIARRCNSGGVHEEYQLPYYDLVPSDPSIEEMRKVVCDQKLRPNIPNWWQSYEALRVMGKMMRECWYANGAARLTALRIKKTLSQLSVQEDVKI

[4] = molecular target: T2, EGFR(L858R) (Homo sapiens, UniProt P00533, L858R); test: KINOMEscan; type: binding; conditions: 2000 nM; read-out: Percent Control
T2 construct: purchased DiscoverX (Eurofins) KINOMEscan / scanEDGE, inferred from the naming style
T2 sequence (P00533 25-1210 L858R): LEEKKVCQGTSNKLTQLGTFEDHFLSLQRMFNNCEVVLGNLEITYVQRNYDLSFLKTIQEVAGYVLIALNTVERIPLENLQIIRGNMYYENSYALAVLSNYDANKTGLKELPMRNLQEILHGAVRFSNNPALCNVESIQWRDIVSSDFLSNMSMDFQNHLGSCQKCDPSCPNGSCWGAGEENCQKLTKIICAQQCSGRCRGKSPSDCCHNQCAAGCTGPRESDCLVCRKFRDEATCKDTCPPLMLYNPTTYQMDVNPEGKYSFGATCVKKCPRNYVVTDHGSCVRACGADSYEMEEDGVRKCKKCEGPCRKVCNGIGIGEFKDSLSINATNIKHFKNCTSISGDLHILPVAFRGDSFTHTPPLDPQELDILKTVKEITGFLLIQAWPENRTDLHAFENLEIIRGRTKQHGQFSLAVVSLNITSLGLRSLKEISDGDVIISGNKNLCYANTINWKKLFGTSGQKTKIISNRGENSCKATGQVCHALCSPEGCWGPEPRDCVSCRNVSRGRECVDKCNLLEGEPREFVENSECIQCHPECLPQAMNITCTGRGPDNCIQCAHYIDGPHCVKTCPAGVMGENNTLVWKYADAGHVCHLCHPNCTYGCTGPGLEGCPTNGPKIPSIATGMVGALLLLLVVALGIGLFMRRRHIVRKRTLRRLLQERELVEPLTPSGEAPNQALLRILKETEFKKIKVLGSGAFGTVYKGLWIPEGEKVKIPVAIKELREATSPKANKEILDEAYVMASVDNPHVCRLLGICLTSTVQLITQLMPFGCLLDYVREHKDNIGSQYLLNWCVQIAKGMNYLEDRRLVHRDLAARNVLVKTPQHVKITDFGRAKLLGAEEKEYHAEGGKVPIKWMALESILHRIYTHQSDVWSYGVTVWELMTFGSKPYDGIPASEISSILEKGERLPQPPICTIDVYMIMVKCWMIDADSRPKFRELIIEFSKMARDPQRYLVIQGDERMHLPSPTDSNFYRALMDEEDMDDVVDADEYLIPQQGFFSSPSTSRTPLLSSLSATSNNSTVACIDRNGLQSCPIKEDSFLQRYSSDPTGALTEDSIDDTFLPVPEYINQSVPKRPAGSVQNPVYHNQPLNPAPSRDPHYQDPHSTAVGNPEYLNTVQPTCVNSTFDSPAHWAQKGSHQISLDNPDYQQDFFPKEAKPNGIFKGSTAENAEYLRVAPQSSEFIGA

Row | Structure (SMILES) | decrease of all four dNTPs [1] | potency for PFKFB3 by isothermal titration calorimetry (in words) [2] | remaining binding at 2 µM [3] [%] | remaining binding at 2 µM [4] [%]
1 | O=C(OCCO)c1ccc(NS(=O)(=O)c2cccc(-c3cc(F)ccc3O)c2)cc1O [KAN0438757, 2-Hydroxyethyl-4-{[(5′-fluoro-2′-hydroxybiphenyl-3-yl)sulfonyl]amino}-2-hydroxybenzoate] | 50–75% |  |  | 
2 | O=C(O)c1ccc(NS(=O)(=O)c2cccc(-c3cc(F)ccc3O)c2)cc1O [KAN0438241, 4-{[(5′-Fluoro-2′-hydroxybiphenyl-3-yl)sulfonyl]amino}-2-hydroxybenzoic acid] |  | sub-µM potency | 100 | 90
